# Values of other authors as cited in patent US20200281958A1, “STABLE FORMULATIONS FOR THE ORAL ADMINISTRATION OF AMPHOTERICIN B AND RELATED METHODS” (priority 2015, published 2020).
# What was measured:
# [1] = tested on: monocytic cell lines and primary macrophages/monocytes
# [2] = crystalline
# [3] = tested on: latently infected T cell lines
structure (smiles),measurement,setting,value
"C[C@@H]1[C@H](O)[C@@H](C)/C=C/C=C/C=C/C=C/C=C/C=C/C=C/[C@H](O[C@@H]2O[C@H](C)[C@@H](O)[C@H](N)[C@@H]2O)C[C@@H]2O[C@](O)(C[C@@H](O)C[C@@H](O)[C@H](O)CC[C@@H](O)C[C@@H](O)CC(=O)O[C@H]1C)C[C@H](O)[C@H]2C(=O)O (relative stereo) [amphotericin B, [1R-(1R*,3S*,5R*,6R*,9R*,11R*,15S*,16R*,17R*,18S*,19E,21E,23E,25E, 27E,29E,31 E,33R*,35S*,36R*,37S)]-33-[(3-amino-3,6-dideoxy-β-D-mannopyranosyl)oxy] 1,3,5,6,9,11, 17,37-octahydroxy-15,16,18-trimethyl-13-oxo-14,39-dioxabicyclo-[33.3.1] nonatriaconta-19,21, 23,25,27,29,3 1-heptaene-36-carboxylic acid]",reactivation of HIV-1 replication,[1],reactivate HIV-1 replication
same,solubility in water,[2],insoluble in water
same,direct reactivation of latently infected T cell lines,[3]; T cell lines alone,did not directly reactivate
same,HIV-1 reactivation in T cell lines,[3]; co-culture with primary macrophages,partial HIV-1 reactivation
